# According to ChEMBL document CHEMBL5537122, “Design, synthesis, and biological evaluation of 4-(2-fluorophenoxy)-7-methoxyquinazoline derivatives as dual EGFR/c-Met inhibitors for the treatment of NSCLC” (Eur J Med Chem, 2024):
# pIC50: −log10 of the molar value. The source made the active and inactive calls. The rule behind the calls is not given here.
# Experiments:
# A549 [1] = test: Downregulation of phosphorylated c-Met protein expression human A549 cells overexpressing c-MET incubated for 24 hrs by Western blotting analysis; format: functional, cell-based; settings: dose 1-10 µM
# A549 [2] = test: Inhibition of colony formation in human A549 cells overexpressing c-MET preincubated for 48 hrs followed by media replacement for every 2 days for 14 days by crystal violet staining based microscopic analysis; format: functional, cell-based; settings: dose 0.25-2 µM
# NCI-H1975 [3] = test: Inhibition of colony formation in human NCI-H1975 cells preincubated for 48 hrs followed by media replacement for every 2 days for 14 days by crystal violet staining based microscopic analysis; format: functional, cell-based; settings: dose 0.25-2 µM
# A549 [4] = test: Antiproliferative activity against human A549 cells overexpressing c-Met and EGFR assessed as reduction in cell viability incubated for 72 hrs by MTT assay; format: functional, cell-based; settings: A549, 72 h
# A549 [5] = test: Induction of apoptosis in human A549 cells overexpressing c-MET assessed as reduction in red fluorescence intensity incubated for 24 hrs by JC-1 staining based fluorescence inverted microscopic analysis; format: functional, cell-based; settings: dose 1-2.5 µM
# A549 [6] = test: Induction in apoptosis in human A549 cells overexpressing c-MET assessed as necrotic cells at 1 uM incubated for 24 hrs by Annexin V-FITC/Propidium Iodide staining based flow cytometry analysis (reference value: 3.22 %); format: functional
# NCI-H1975 [7] = test: Induction in apoptosis in human NCI-H1975 cells assessed as late apoptotic cells at 1 uM incubated for 24 hrs by Annexin V-FITC/Propidium Iodide staining based flow cytometry analysis (reference value: 4.46 %); format: functional
# NCI-H1975 [8] = test: Induction in apoptosis in human NCI-H1975 cells assessed as early apoptotic cells at 2.5 uM incubated for 24 hrs by Annexin V-FITC/Propidium Iodide staining based flow cytometry analysis (reference value: 2.54 %); format: functional
# NCI-H1975 [9] = test: Induction in apoptosis in human NCI-H1975 cells assessed as late apoptotic cells at 2.5 uM incubated for 24 hrs by Annexin V-FITC/Propidium Iodide staining based flow cytometry analysis (reference value: 4.46 %); format: functional
# NCI-H1975 [10] = test: Induction in apoptosis in human NCI-H1975 cells assessed as necrotic cells at 2.5 uM incubated for 24 hrs by Annexin V-FITC/Propidium Iodide staining based flow cytometry analysis (reference value: 1.42 %); format: functional
# [11] = Induction in apoptosis in human L02 cells assessed as viable cells at 1 uM incubated for 24 hrs by Annexin V-FITC/Propidium Iodide staining based flow cytometry analysis (reference value: 92.75 %); format: toxicity, cell-based; settings: read-out: Activity
# L02 [12] = test: Induction in apoptosis in human L02 cells assessed as early apoptotic cells at 1 uM incubated for 24 hrs by Annexin V-FITC/Propidium Iodide staining based flow cytometry analysis (reference value: 0.26 %); format: toxicity, cell-based; settings: l02, 24 h
# L02 [13] = test: Induction in apoptosis in human L02 cells assessed as early apoptotic cells at 2.5 uM incubated for 24 hrs by Annexin V-FITC/Propidium Iodide staining based flow cytometry analysis (reference value: 0.26 %); format: toxicity, cell-based; settings: l02, 24 h
# A549 [14] = test: Induction of cell cycle arrest in human A549 cells overexpressing c-MET assessed as accumulation of cells at S phase at 1 uM incubated for 24 hrs by RNase A/propidium iodide staining based flow cytometric analysis (reference value: 37.87 %); format: functional
# A549 [15] = test: Induction of cell cycle arrest in human A549 cells overexpressing c-MET assessed as accumulation of cells at G2/M phase at 2.5 uM incubated for 24 hrs by RNase A/propidium iodide staining based flow cytometric analysis (reference value: 12.41 %); format: functional
# A549 [16] = test: Antimigratory activity against EGF-induced cell migration in serum starved human A549 cells overexpressing c-MET assessed as increase in width of artificial gap incubated for 24 hrs by wound healing assay; format: functional, cell-based; settings: dose 1-2.5 µM
# NCI-H1975 [17] = test: Antimigratory activity against EGF-induced cell migration in serum starved human NCI-H1975 cells assessed as increase in width of artificial gap incubated for 24 hrs by wound healing assay; format: functional, cell-based; settings: dose 1-2.5 µM
# PC-9 = test: Antimigratory activity against EGF-induced cell migration in serum starved human PC-9 cells assessed as increase in width of artificial gap incubated for 24 hrs by wound healing assay; format: functional, cell-based; settings: dose 1-2.5 µM
# A549 [18] = test: Downregulation of phosphorylated EGFR protein expression level human A549 cells overexpressing c-MET incubated for 24 hrs by Western blotting analysis; format: functional, cell-based; settings: dose 1-10 µM
# A549 [19] = test: Downregulation of phosphorylated Akt expression level human A549 cells overexpressing c-MET incubated for 24 hrs by Western blotting analysis; format: functional, cell-based; settings: dose 0.2-10 µM
# [20] = target: Fibroblast growth factor receptor 4 (Homo sapiens) (UniProt P22455); test: Inhibition of FGFR4 (unknown origin) at 10 uM
# Fibroblast growth factor receptor 4 (Homo sapiens), sequence (P22455 22-802 limits assumed): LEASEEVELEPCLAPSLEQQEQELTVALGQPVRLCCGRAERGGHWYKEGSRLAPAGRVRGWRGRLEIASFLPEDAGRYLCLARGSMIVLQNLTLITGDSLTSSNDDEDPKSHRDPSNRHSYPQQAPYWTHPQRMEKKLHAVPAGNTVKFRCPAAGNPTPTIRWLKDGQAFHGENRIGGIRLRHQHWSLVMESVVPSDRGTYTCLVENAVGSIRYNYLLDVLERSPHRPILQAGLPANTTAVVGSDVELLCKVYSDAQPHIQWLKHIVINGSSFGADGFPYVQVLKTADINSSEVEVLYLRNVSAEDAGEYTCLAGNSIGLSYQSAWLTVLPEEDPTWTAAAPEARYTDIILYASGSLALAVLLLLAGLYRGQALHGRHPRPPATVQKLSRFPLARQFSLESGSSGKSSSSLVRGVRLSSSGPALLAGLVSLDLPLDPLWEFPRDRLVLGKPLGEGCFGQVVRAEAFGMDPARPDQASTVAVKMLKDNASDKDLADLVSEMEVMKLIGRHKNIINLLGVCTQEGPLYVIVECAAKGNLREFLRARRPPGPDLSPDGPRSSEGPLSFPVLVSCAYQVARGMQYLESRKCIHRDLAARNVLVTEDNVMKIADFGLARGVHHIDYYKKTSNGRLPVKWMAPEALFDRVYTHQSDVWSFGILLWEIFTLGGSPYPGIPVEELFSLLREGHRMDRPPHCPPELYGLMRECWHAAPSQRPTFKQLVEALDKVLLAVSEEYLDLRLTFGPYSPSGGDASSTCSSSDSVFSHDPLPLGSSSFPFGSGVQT
# [21] = target: Proto-oncogene tyrosine-protein kinase receptor Ret (Homo sapiens) (UniProt P07949); test: Inhibition of RET (unknown origin) at 10 uM
# Proto-oncogene tyrosine-protein kinase receptor Ret (Homo sapiens), sequence (P07949 whole entry): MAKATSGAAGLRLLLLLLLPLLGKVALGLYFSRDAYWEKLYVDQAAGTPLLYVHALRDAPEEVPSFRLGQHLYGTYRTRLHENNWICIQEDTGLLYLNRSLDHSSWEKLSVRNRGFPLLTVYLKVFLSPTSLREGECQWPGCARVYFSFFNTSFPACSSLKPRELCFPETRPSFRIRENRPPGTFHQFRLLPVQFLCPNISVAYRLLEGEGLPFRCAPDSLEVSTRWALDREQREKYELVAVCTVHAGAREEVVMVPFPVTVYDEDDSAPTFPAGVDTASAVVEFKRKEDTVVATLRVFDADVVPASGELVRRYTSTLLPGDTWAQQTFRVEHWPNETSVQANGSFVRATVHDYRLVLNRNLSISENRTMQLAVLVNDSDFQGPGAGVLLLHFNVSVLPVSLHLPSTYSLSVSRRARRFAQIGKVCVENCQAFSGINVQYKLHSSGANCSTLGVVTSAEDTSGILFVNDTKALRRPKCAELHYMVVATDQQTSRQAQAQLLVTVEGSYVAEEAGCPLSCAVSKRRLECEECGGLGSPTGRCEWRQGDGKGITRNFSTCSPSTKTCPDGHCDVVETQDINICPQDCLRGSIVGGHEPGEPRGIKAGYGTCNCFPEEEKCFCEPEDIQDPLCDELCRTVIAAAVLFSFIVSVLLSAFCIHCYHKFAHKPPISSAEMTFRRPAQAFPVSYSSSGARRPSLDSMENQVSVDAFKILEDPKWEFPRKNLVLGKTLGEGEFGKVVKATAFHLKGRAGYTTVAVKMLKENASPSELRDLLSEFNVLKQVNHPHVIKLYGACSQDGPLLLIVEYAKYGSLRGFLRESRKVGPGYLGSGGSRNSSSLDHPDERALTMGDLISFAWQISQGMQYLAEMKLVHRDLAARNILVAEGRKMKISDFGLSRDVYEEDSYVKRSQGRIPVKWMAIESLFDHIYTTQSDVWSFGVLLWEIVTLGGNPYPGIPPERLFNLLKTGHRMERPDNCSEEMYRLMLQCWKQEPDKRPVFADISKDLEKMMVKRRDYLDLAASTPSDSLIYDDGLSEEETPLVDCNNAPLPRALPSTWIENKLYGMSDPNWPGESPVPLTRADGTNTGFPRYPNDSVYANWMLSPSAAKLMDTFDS
# [22] = target: Fibroblast growth factor receptor 1 (Homo sapiens) (UniProt P11362); test: Inhibition of FGFR1 (unknown origin) at 10 uM
# Fibroblast growth factor receptor 1 (Homo sapiens), sequence (P11362 22-822 limits assumed): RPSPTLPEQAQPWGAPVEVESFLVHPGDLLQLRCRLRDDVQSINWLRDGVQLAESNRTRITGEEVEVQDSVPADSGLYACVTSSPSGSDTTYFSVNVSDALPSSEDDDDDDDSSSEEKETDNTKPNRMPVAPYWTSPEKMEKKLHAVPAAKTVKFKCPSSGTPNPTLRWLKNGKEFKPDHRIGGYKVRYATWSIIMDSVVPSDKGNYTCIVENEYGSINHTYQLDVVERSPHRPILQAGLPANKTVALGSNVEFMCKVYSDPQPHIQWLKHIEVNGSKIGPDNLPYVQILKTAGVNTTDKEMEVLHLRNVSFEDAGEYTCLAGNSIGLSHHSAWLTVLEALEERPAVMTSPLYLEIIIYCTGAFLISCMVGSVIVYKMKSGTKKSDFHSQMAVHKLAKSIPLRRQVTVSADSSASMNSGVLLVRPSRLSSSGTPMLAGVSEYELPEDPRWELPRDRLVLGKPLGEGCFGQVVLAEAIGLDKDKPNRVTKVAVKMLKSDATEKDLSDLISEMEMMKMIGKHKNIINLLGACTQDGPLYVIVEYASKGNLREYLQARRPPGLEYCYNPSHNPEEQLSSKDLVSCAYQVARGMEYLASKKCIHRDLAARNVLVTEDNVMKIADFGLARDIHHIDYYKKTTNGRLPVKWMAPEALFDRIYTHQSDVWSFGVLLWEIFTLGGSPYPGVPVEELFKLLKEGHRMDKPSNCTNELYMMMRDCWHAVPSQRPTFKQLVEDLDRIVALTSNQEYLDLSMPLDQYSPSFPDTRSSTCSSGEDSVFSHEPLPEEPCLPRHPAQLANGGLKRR
# [23] = Cardiotoxicity in KM mouse assessed as effect on lactate dehydrogenase level at 100 mg/kg, IG qd administered for 7 days by automatic biochemical analyzer; format: toxicity, organism-based; settings: in vivo, po, 168 h, time 7 day
# [24] = Hepatotoxicity in KM mouse assessed as effect on alanine aminotransferase level at 100 mg/kg, IG qd administered for 7 days by automatic biochemical analyzer; format: toxicity, organism-based; settings: in vivo, po, 168 h, time 7 day
# [25] = Hepatotoxicity in KM mouse assessed as alkaline phosphatase level at 100 mg/kg, IG qd administered for 7 days by automatic biochemical analyzer; format: toxicity, organism-based; settings: in vivo, po, 168 h, time 7 day
# [26] = Nephrotoxicity in KM mouse assessed as effect on urea level at 100 mg/kg, IG qd administered for 7 days by automatic biochemical analyzer; format: toxicity, organism-based; settings: in vivo, po, 168 h, time 7 day
# [27] = Nephrotoxicity in KM mouse assessed as effect on creatinine level at 100 mg/kg, IG qd administered for 7 days by automatic biochemical analyzer; format: toxicity, organism-based; settings: in vivo, po, 168 h, time 7 day
# [28] = Acute toxicity in KM mouse assessed as effect on glucose level at 100 mg/kg, IG qd administered for 7 days by automatic biochemical analyzer; format: organism-based; settings: in vivo, po, 168 h, time 7 day
# [29] = Acute toxicity in KM mouse assessed as cell damage or necrosis in heart at 100 mg/kg, IG qa administered for 7 days and measured on day 8 by hematoxylin and eosin staining based assay; format: organism-based; settings: in vivo, po, 192 h, time 8 day
# [30] = Acute toxicity in KM mouse assessed as cell damage or necrosis in liver at 100 mg/kg, IG qa administered for 7 days and measured on day 8 by hematoxylin and eosin staining based assay; format: organism-based; settings: in vivo, po, 192 h, time 8 day
# [31] = Toxicity in BALB/c nude mouse xenografted with human A549 cells overexpressing c-MET assessed as change in body weight at 40 to 60 mg/kg, IG and measured for 24 days; format: organism-based; settings: in vivo, po, 576 h, dose 40-60 mg/kg, time 24 day
# [32] = target: Hepatocyte growth factor receptor (Homo sapiens, UniProt P08581); test: Potency index, ratio of foretinib IC50 to test compound IC50 for inhibition of N-terminal GST tagged human recombinant c-Met (956 to end residues) expressed in baculovirus infected Sf9 cells using Poly (4:1 Glu, Tyr) as substrate incubated for 60 mins in presence of ATP by ADP-Glo luminescent assay
# Hepatocyte growth factor receptor, sequence (P08581 whole entry): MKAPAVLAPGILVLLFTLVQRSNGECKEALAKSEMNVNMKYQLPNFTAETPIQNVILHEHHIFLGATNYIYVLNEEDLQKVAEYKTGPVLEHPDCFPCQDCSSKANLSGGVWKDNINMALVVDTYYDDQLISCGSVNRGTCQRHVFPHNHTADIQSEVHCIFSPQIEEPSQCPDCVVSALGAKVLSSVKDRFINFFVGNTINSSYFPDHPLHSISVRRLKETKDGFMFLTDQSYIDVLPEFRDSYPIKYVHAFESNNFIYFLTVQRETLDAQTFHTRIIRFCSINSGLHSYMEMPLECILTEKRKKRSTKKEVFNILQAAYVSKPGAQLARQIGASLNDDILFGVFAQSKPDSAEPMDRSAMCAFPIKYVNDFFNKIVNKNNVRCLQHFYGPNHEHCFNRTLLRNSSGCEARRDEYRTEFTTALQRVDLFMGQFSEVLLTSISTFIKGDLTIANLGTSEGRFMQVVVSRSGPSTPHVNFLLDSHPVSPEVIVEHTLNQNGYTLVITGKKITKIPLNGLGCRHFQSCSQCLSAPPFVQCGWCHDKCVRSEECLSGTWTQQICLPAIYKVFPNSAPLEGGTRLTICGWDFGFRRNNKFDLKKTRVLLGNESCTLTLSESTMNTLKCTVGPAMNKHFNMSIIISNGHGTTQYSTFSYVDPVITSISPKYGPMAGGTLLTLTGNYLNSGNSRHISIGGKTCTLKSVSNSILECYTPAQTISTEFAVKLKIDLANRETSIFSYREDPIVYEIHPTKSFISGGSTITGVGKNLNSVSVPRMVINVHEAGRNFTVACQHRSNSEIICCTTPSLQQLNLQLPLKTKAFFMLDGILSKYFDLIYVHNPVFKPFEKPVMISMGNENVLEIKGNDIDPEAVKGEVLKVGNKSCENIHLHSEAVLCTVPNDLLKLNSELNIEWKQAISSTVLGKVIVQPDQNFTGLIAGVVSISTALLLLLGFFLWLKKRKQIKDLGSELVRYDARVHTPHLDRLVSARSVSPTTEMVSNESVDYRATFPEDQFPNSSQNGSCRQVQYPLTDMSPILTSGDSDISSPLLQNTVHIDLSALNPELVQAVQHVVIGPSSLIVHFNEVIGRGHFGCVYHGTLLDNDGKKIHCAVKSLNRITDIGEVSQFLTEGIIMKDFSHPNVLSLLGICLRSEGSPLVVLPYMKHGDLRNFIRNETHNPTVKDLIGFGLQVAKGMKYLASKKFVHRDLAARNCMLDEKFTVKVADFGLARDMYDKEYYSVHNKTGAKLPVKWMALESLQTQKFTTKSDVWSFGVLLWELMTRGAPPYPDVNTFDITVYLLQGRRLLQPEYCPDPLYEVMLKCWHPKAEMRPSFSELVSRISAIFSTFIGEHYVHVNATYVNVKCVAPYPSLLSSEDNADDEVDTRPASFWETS
# [33] = target: Epidermal growth factor receptor (Homo sapiens, UniProt P00533); test: biochemical
# Description: Inhibition of N-terminal GST tagged human recombinant EGFR (695 to end residues) expressed in baculovirus infected Sf9 cells using Poly (4:1 Glu, Tyr) as substrate incubated for 60 mins in presence of ATP by ADP-Glo luminescent assay
compound,measurement,setting,value
C=CC(=O)Nc1cc2c(Oc3ccc(NC(=O)n4c(=O)c(-c5ccccc5)c(C)n4C)cc3F)cccc2cc1OC,Activity,A549 [1],Dose-Dependent Effect
same,inhibition,A549 [2],Dose-Dependent Effect
same,inhibition,NCI-H1975 [3],Dose-Dependent Effect
same,pIC50,A549 [4],5.97
same,Activity,A549 [5],Dose-Dependent Effect
same,Activity,A549 [6],6.61%
same,Activity,NCI-H1975 [7],7.27%
same,Activity,NCI-H1975 [8],3.87%
same,Activity,NCI-H1975 [9],8.17%
same,Activity,NCI-H1975 [10],2.49%
same,"viability at 24 h, 1 µM",[11],91.9%
same,Activity,L02 [12],0.21%
same,Activity,L02 [13],0.13%
same,Activity,A549 [14],35.49%
same,Activity,A549 [15],10.98%
same,Activity,A549 [16],Dose-Dependent Effect
same,Activity,NCI-H1975 [17],Dose-Dependent Effect
same,Activity,PC-9,Dose-Dependent Effect
same,Activity,A549 [18],Dose-Dependent Effect
same,Activity,A549 [19],Dose-Dependent Effect
same,inhibition,[20],inactive
same,inhibition,[21],inactive
same,inhibition,[22],inactive
same,Activity,[23],Non-Toxic
same,Activity,[24],Non-Toxic
same,Activity,[25],> 60 U/L
same,Activity,[26],Non-Toxic
same,Activity,[27],Non-Toxic
same,Activity,[28],Non-Toxic
same,Activity,[29],Non-Toxic
same,Activity,[30],Non-Toxic
same,Activity,[31],Non-Toxic
same,Ratio IC50,[32],28
same,pIC50,[33],7.00
